Like-named read-outs stand apart in the source and are kept apart here.
How the values were obtained:
PG synthesis = conditions: background statement; cited from earlier work
[1] = target: T1, Human Polymorphonuclear Leukocyte Elastase (Homo sapiens, UniProt P08246); assay: biochemical
T1 sequence (P08246 30-247 limits assumed): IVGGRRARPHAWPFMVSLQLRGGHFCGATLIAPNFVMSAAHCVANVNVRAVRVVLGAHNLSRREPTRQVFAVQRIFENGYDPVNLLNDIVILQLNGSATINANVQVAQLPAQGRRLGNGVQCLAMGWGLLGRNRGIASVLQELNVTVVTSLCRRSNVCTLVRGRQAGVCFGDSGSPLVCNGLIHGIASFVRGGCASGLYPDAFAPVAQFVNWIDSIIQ
Method: Protocol--Enzyme Assays for the Inhibition of Human Polymorphonuclear Leukocyte Elastase Via Hydrolysis of N-t-Boc-alanyl-alanyl-prolylalanine-p-nitroanilide Reagents:
0.05M TES (N-tris[hydroxymethyl]methyl-2-amino-ethanesulfonic acid) Buffer, pH 7.5.
0.2 mMN-t-Boc-alanyl -alanyl -prolyl-alanine-p-nitroanilide (Boc-AAPAN).
To prepare substrate, the solid (m.w. 550) was first dissolved in 10.0 ml DMSO. Buffer at pH 7.5 was then added to a final volume of 100 ml.
Crude extract of human polymorphonuclear leukocytes (PMN) containing elastase activity.
Inhibitors (cephalosporin sulfone esters) to be tested dissolved in DMSO just before use.
To 1.0 ml of 0.2 mM Boc-AAPAN in a cuvette, 0.01-0.1 ml of DMSO with or without inhibitor was added. After mixing, a measurement was taken at 410 mμ to detect any spontaneous hydrolysis due to presence of test compound. 0.05 Milliliters of PMN extract was then added and the ΔOD/min at 410 mμ was measured and recorded. Beckman model 35 spectrophotometer was used.
The elastase activity in the crude PMN extract may vary from one preparation to another. A control of each new batch is run, and the volume added in the assay procedure is adjusted according to activity.

[2] = test system: elastase both from the pancreas and the PMN; conditions: background statement; cited from earlier work
[3] = Table II, 50% inhibition of the enzyme activity 2 minutes after zero time, crude PMN extract, pH 7.5, 0.2 mM Boc-AAPAN, read-out: ED50 (the source's name) (converted)

Compound | IC50 [1, 3] [nM] | other results
COc1ccc2c(c1)c(CC(=O)O)c(C)n2C(=O)c1ccc(Cl)cc1 [indomethacin] |  | inhibition of PG synthesis (PG synthesis): inhibited
COC(=O)C1=C(Cl)CS(=O)(=O)C2[C@@H](OC)C(=O)N12 (stereo partly drawn) [R1=OCH3, M=Cl, B=OCH3, Q=H, Methyl-3-chloro-7α-methoxy-8-oxo-5-thia-1-azabicyclo[4.2.0]oct-2-ene-2-carboxylate-5,5-dioxide] | 676 | 
COC1C(=O)N2C(C(=O)OCC(=O)C(C)(C)C)=C(COC(C)=O)CS(=O)(=O)C12 (centres unmarked) [R1=OCH3, M=CH2OCOCH3, B=OCH2COtBu, Q=H] | 47.9 | 
COC1C(=O)N2C(C(=O)OC(C)(C)C)=C(COC(C)=O)C(CS(=O)(=O)c3ccccc3)S(=O)(=O)C12 (centres unmarked) | 37.8 | 
CCOC(=S)SCC1=C(C(=O)OC(C)(C)C)N2C(=O)C(OC)C2S(=O)(=O)C1 (centres unmarked) [R1=OCH3, M=drawing 40, B=OtBu, Q=H] | 1600 | 
COC1C(=O)N2C(C(=O)OC(C)(C)C)=C(CSc3nc[nH]n3)CS(=O)(=O)C12 (centres unmarked) [R1=OCH3, M=drawing 39, B=OtBu, Q=H] | 2160 | 
CO[C@H]1C(=O)N2C(C(=O)OC(C)(C)C)=C(C(=O)O)CS(=O)(=O)C12 (stereo partly drawn) [R1=OCH3, M=COOH, B=OtBu, Q=H, t-Butyl 3-hydroxycarbonyl-7α-methoxy-8-oxo-5-thia-1-azabicyclo[4.2.0]oct-2-ene-2-carboxylate-5,5 dioxide] | 28.8 | 
CC(=O)OCC1=C(C(=O)OC(C)(C)C)N2C(=O)C(Cl)(Cl)C2S(=O)(=O)C1 (centres unmarked) |  | IC50 ([1]; Table IIa, 50% inhibition of the enzyme activity 2 minutes after zero time, crude PMN extract, pH 7.5, 0.2 mM Boc-AAPAN, read-out: ED50 (the source's name) (converted)): 241 nM
COC1C(=O)N2C(C(=O)OC(C)(C)C)=C(CSc3nccn3C)CS(=O)(=O)C12 (centres unmarked) [R1=OCH3, M=drawing 41, B=OtBu, Q=H] |  | IC50 [1]: 2330 nM
α1 -Antitrypsin: a glycoprotein contained in human serum that has a wide inhibitory spectrum |  | inhibitory spectrum [2]: wide inhibitory spectrum covering, among other enzymes, elastase both from the pancreas and the PMN
CO[C@H]1C(=O)N2C(C(=O)OC(C)(C)C)=C(COC(C)=O)CS(=O)(=O)[C@H]12 [R1=OCH3, M=CH2OCOCH3, B=OtBu, Q=H, t-Butyl-3-acetyloxymethyl-7α-methoxy-8-oxo-5-thia-1-azabicyclo[4.2.0]oct-2-ene-2-carboxylate-5,5-dioxide] | 1330 | 
COC(=O)c1cccc(COC(=O)C2=C(C)CS(=O)(=O)C3C(OC)C(=O)N23)c1 (centres unmarked) | 733 | 
CCCCC1C(=O)N(c2ccccc2)N(c2ccccc2)C1=O [phenylbutazone] |  | inhibition of PG synthesis (PG synthesis): inhibited
CO[C@H]1C(=O)N2C(C(=O)OC(C)(C)C)=C(COC(C)=O)C(CSc3ccccc3)S(=O)(=O)[C@H]12 (stereo partly drawn) [t-Butyl 3-acetyloxymethyl-7α-methoxy-4-phenylthiomethyl-8-oxo-5-thia-1-azabicyclo[4.2.0]oct-2-ene-2-carboxylate-5,5-dioxide] | 60.3 | 
